Consider 2 molecules from patent EP4289421A1, “COMBINATION OF PALMITOYLETHANOLAMIDE (PEA) AND MELATONIN FOR THE TREATMENT OF MAST CELL HYPER-REACTIVITY” (Erbozeta S.p.A., priority 2022, dated 2023).

In this test the test system is human mast cell line (HMC-1.1). Kind of test: Release of pro-pain and pro-inflammatory mediators (degranulation) by activated human mast cells. The format is cell-based. Particulars: HMC-1.1 activated by compound 48/80 or substance P; substances added individually or combined. The procedure:
A human mast cell line (HMC-1.1) was activated both by compound 48/80 (a potent synthetic stimulant, available from Sigma-Aldrich) and by substance P (potent physiological stimulant, CAS number 33507-63-0). The release of pro-pain and pro-inflammatory mediators, such as histamine, TNF-α and IL-6, was then measured in the absence of PEA and melatonin, in the presence of PEA or melatonin alone as well as in the presence of PEA + melatonin. The use of mast cells of human origin, compared to classic murine mast cells, has allowed to measure, with high reliability, the release not only of histamine but also of protein mediators such as TNF-α and IL-6. The in vitro analysis then made it possible to evaluate the effects of the combination at the mast cell level in a highly specific and precise manner. A direct study on a biological organism, ultimately humans, would have been insensitive as the variation of pro-pain and pro-inflammatory mediators, detected in the blood or in any body fluid, would have depended on an action of PEA and melatonin on various cell types, and not exclusively on mast cells.

Consider `COc1ccc2[nH]cc(CCNC(C)=O)c2c1` [melatonin], for which the “reduction in the release of mast cell mediators (histamine, TNF-α, IL-6)” value is given as “comparable reduction in the release of mast cell mediators”.
`CCCCCCCCCCCCCCCC(=O)NCCO` [PEA, palmitoylethanolamide]: the “reduction in the release of mast cell mediators (histamine, TNF-α, IL-6)” value was “comparable reduction in the release of mast cell mediators”.
